Columns and labels:
[1] = test system: papulopustular rosacea in patients aged 65 years and older; test: Randomized, double-blind, vehicle-controlled 12-week study of E-BPO cream: Investigator Global Assessment (IGA) success rate; assay type: in vivo, human; details: Week 8
Protocol: Description: A randomized, double-blind, multi-center, parallel group, active- and vehicle-controlled study of encapsulated 5% benzoyl peroxide cream (E-BPO) and vehicle cream was performed to assess the efficacy and safety of E-BPO compared to vehicle. Study duration was 12 weeks and included approximately 350 male and female patients afflicted with papulopustular rosacea. 71 patients (about 20%) were at least 65 years of age.
Patients were admitted into the study after meeting all inclusion/exclusion criteria, including a clinical diagnosis of rosacea. Subjects with moderate to severe rosacea who were appropriate for systemic treatment were counseled regarding their treatment options by the Principal Investigator. At each visit, a 5-point IGA scale of rosacea and inflammatory lesion counts were performed and recorded.
Dosing: Patients were randomly organized in a 2:1 ratio to the study product or vehicle treatment group, respectively. Patients applied the study product once daily for 12 weeks on the face in a thin layer to provide even distribution.
Clinical and Safety Evaluations were performed at Baseline and Weeks 2, 4, 8 and 12.
The success rate of the treatment of rosacea (defined as a 2-grade improvement in the IGA relative to Baseline at Weeks 2, 4, […] and 12, with an IGA of Clear or Almost Clear) in patients aged 65 years and older are shown in Table 1 and FIG. 1. […]

rosacea = details: Gul 2008; BPO as sole active agent; cited from earlier work

O=C(OOC(=O)c1ccccc1)c1ccccc1 [BPO, Benzoyl peroxide]
Success rate greater than the success rate achieved with vehicle alone (difference drug - vehicle) [1]: 25% | Response of rosacea lesions (rosacea): unresponsive
